Assay results: PubChem BioAssay (NCI)
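Where inhibition never reached the appropriate level, the endpoint shown equals the highest concentration tested. Otherwise, values were interpolated linearly from a five-concentration, 48-hour dose response in 96-well plates. Abbreviation: GI50, concentration required for 50% inhibition of growth. At the TGI there is no net growth.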

Assays:
Assay in all cases: NCI tumour cell line growth inhibition, 48 h
[1] = system: HOP-62 NSCLC
[2] = system: K-562 leukemia
[3] = system: SK-MEL-2 melanoma
[4] = system: MOLT-4 leukemia
[5] = system: DU-145 prostate
[6] = system: HCC-2998 colon
[7] = system: UACC-257 melanoma
[8] = system: LOX IMVI melanoma
[9] = system: NCI-H460 lung
[10] = system: PC-3 prostate

SMILES	TGI [1] [µM]	TGI [2] [µM]	TGI [3] [µM]	TGI [4] [µM]	TGI [5] [µM]	TGI [6] [µM]	TGI [7] [µM]	TGI [8] [µM]	TGI [9] [µM]	TGI [10] [µM]	GI50 [1] [µM]	GI50 [2] [µM]	GI50 [3] [µM]	GI50 [4] [µM]	GI50 [5] [µM]	GI50 [6] [µM]	GI50 [7] [µM]	GI50 [8] [µM]	GI50 [9] [µM]	GI50 [10] [µM]
COc1ccc2c(=O)c3ccoc3n(CC=C(C)C)c2c1	> 100	> 100	> 100	> 100	> 100	> 100	> 100	> 100	> 100	> 100										
COC1CC2CCC(C)C(O)(O2)C(=O)C(=O)N2CCCCC2C(=O)OC(C(C)CC2CCC(O)C(OC)C2)CC(=O)C(C)C=C(C)C(O)C(OC)C(=O)C(C)CC(C)/C=C/C=C/C=C1C (stereo not given)	9.96	32.3	12.3	13.9	10.9	11.4	12.5	13.1	11.5	13	0.159	4.94	5.19	0.0787	3.52	0.263	4.46	0.015	< 0.005	< 0.005
CCC/C(=N/N=C(N)N)c1ccc(NC(=O)c2cc3cc(OC)ccc3[nH]2)cc1	30.2		38.9		12	39	37.5				10.1		18.3		3.57	15.1	16.2			
O=C(CC1(O)C(=O)Nc2c(Cl)ccc(Cl)c21)c1ccc2ccccc2c1 (stereo not given)	99.2		26.3	38.9		35.6	25.3	31.9	25.5											
O=c1ccn(C2OC(CO/N=C/c3ccc(O)c(O)c3O)C(O)C2O)c(=O)[nH]1 (stereo not given)	> 100	78.5	> 100		33.2	> 100	> 100	32.2	> 100	86.9	67.6	21.7	57.4		17.1	> 100	33.5	16.1	> 100	25.1
CC(=O)[CH-]C(=O)c1ccccc1.CC(=O)[CH-]C(=O)c1ccccc1.CC(C)CCCC(C)[C@H]1CCC2[C@@H]3CC=C4C[C@@H]([O-])CC[C@]4(C)C3CC[C@@]21C.CC[O-].[Ti+4] (stereo not given in full)	> 100	> 100	80.1	63.1		> 100	> 100	> 100	> 100		43.2	33.1	22.4	16.4		62.6	60.3	81.1	44.8	
O=C(CNc1ccc2c(c1)C(=O)c1ccccc1C2=O)Nc1ccc2c(c1)C(=O)c1ccccc1C2=O	3.59		2		2.87	2.99	2.99	0.317	2.88	3.48	1.85		0.697		1.53	1.58	1.49	0.142	1.28	1.29
Cc1ccccc1N=Nc1ccc(NC(=O)c2ccnn2C)c(C)c1	> 100		> 100		> 100	> 100	> 100	> 100	> 100	> 100	29.4		28.6		> 100	> 100	49	72.2	26.5	92.7
Cn1c(=O)nc2n(-c3cccc(Br)c3)c3ccccc3nc-2c1=O	28	35.9	18.2			9.59	6.58		12.2											
COC(=O)/C([Se]c1c(C)cc(C)cc1C)=C(\[Se]c1c(C)cc(C)cc1C)C(=O)OC	> 100	> 100	> 100	> 100		> 100	> 100	> 100	> 100											
CCn1c(CN2CCN(Cc3ccccc3)CC2)nc2cc(NC(=O)c3cccs3)ccc21	38	87.9	39.3	37.9	> 100	35.6		41.7	42.5	> 100	17.7	15.1	20	13.2	32.1	17.3		19.4	18.7	20.8
Cc1ccccc1C(=O)c1ccccc1O	> 100	> 100	> 100	> 100		> 100	> 100	> 100	> 100											
CN(C)c1ccc([O][Bi]([Cl])[Cl])cc1			> 100	> 100		> 100	> 100	> 100	> 100				> 100	> 100		42.5	37.2	> 100	> 100	
CCc1c(C#N)c(S[C@@H](C(N)=O)c2ccccc2)nc(N(C)C)c1C#N	17.7		> 100		> 100	> 100		> 100	> 100		3.63		> 100		> 100	> 100		> 100	> 100	
O=C(CO)CC(=O)C(=O)Nc1ccccc1	> 100	> 100	> 100	> 100		> 100	> 100	> 100	> 100											
O=[N+]([O-])c1nccn1CC(O)CN1CC1 (stereo not given)	> 100	> 100	> 100	> 100			> 100		> 100											
CC(=O)[CH-]C(=O)c1ccccc1.CC(=O)[CH-]C(=O)c1ccccc1.[Eu+3].[OH-].[OH3+]	> 100	> 100		> 100		> 100	> 100	> 100	> 100		> 100	> 100		> 100		> 100	> 100	> 100	> 100	
